Publication PMC6104039 (Nature Communications, 2018)
Entries after “also recorded” stand apart in the source; their conditions may differ.

Key:
murine CerS5 = molecular target: T1, murine CerS5 (Mus musculus, UniProt Q9D6K9); assay: Ceramide synthase assay, NBD-dihydrosphingosine, C16:0-CoA; COS cells expressing murine CerS5; type: biochemical; settings: inhibitor range 10 nM–100 μM; read-out: IC50 mCerS5
T1 construct: expressed in transfected cells; host or cells: COS cells (lentiviral infection)
T1 sequence (Q9D6K9 1-414): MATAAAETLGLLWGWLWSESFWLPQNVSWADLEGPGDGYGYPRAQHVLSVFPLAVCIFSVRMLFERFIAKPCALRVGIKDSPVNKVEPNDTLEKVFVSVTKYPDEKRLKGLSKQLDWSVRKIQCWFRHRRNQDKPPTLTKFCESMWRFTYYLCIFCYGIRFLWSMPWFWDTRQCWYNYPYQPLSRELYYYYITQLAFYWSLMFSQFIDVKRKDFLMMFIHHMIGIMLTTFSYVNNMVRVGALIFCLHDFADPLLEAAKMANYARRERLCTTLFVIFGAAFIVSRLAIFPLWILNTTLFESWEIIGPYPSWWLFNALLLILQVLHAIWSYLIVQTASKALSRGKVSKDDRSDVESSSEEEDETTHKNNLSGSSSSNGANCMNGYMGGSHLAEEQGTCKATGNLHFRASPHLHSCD
Method: (§1) Ceramide synthase assays were carried out using an HPLC-based assay with a fluorescent NBD-dihydrosphingosine substrate. All cell lines used for these assays were originally sourced from ATCC. […] Human CerS expression plasmids (pCMV6 plasmids from Origene) were transfected using FuGene-6 transfection reagent, and cells were harvested 24 h after transfection in 20 mM Hepes pH 7.4, 10 mM KCl, 1 mM dithiothreitol, 3 mM β-glycerophosphate, and EDTA-free complete protease inhibitor cocktail (Roche). Cells were sonicated in a Diagenode Bioruptor sonicating bath for 5 min, after which cell extracts were cleared by centrifugation at 800 × g for 10 min. Protein concentration in the supernatant was assayed using the bicinchoninic acid (BCA) assay, and the supernatant stored at −80 °C. COS cells were infected with lentiviral constructs expressing murine CerS1, 2, or 5, then homogenised as described above.
(§2) The reaction buffer consisted of 20 mM Hepes pH 7.4, 25 mM KCl, 2 mM MgCl2, 0.5 mM dithiothreitol, 0.1% fatty acid free BSA, 10 μM NBD-dihydrosphingosine and 50 μM fatty acid free BSA. C18:0-CoA was used as the fatty acyl substrate for CerS1 and CerS4; C24:1-CoA for CerS2; and C16:0-CoA for CerS5 and CerS6. All reactions were run in triplicate. Test inhibitors were added, after which reactions were started with the addition of 2.5–25 μg lysate protein (optimised depending on the particular CerS isoform being assayed). Assays were run for 30 min at 37 °C, and stopped with the addition of 200 μL methanol. The reaction mixture was transferred to a glass HPLC vial with 300 μL fused glass insert (Thermo Fisher Scientific) and NBD-dihydroceramide reaction products were analysed on a Thermo Scientific Surveyor HPLC connected to a Shimadzu RF-10AXL fluorescent detector (set to gain of 3). […] Data was acquired over a 12 min chromatography run using: solvent A, 0.2% formic acid, 2 mM ammonium formate in water; solvent B, 0.2% formic acid, 1 mM ammonium formate in methanol. The gradient started at 20:80 A/B, increasing to 5:95 A/B over 2 min, then to 100% B over 6 min. The gradient was then held at 100% B for 2 min, before re-equilibration to 20:80 A/B for a further 2 min. Peak areas were integrated using Xcalibur software (Thermo Fisher Scientific).

human CerS4 = molecular target: T2, human CerS4 (Homo sapiens, UniProt Q9HA82); assay: Ceramide synthase assay, NBD-dihydrosphingosine, C18:0-CoA; U251 cells expressing human CerS4; type: biochemical; settings: inhibitor range 10 nM–100 μM; read-out: IC50 hCerS4
T2 construct: host or cells: U251
T2 sequence (Q9HA82 1-394): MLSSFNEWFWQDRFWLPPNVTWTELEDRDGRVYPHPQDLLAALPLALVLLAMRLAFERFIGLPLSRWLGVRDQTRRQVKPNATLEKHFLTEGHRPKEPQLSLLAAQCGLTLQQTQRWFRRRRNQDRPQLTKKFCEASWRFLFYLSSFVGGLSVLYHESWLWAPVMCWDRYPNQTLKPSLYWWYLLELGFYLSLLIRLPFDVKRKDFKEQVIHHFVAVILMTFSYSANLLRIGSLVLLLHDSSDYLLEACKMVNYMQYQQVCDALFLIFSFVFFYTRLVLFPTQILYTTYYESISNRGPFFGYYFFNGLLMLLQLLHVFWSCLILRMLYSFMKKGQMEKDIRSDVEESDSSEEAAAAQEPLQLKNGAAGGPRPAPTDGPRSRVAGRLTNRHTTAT
Method: as §1, §2

HEK293 cells = assay: Detection of the phosphate of the compound in cultured cells, LC-MS/MS; type: in vitro ADME; settings: 1 µM, 2 h
Method: LC-MS/MS was performed on a TSQ Quantum Access triple quadrupole mass spectrometer in positive ion mode, coupled to an Accela UPLC system (Thermo Scientific). Extracts (20 μL) were separated on a 2 × 100 mm Eclipse XDB-C8 column with 1.8 μm particle size (Agilent Technologies), using a 7.5 min binary HPLC gradient: 0 min, 70% B ([…]); 1.5 min, 70% B; 3.5 min, 95% B; 4 min, 95% B; 4.5 min, 70% B; 7.5 min 70% B. Mobile phase A: 2 mM ammonium formate/1% formic acid in water; mobile phase B: 1 mM ammonium formate/1% formic acid in methanol. The flow rate was 0.4 mL min^−1, increasing to 0.5 mL min^−1 from 5–7 min, and column oven 30 °C. […] Visualisation and quantification of peaks was performed using Thermo Fisher’s XCalibur software v2.2.
Supplementary Figure 8. P053 is not phosphorylated in situ or in vivo. (a-b) HEK293 cells […]
LC-MS/MS analysis. Chromatograms for (a) FTY720 and its phosphate, and (b) P053 and its putative phosphate are shown. […]
mg/kg/day for 6 weeks, corresponding to a plasma concentration of ~300 nM. No peak is […]
(1 picture or pasted object on this page, not shown here)

Row | Compound | IC50 (murine CerS5) [µM] | IC50 (human CerS4) [µM] | phosphate of the compound in cultured HEK293 cells (HEK293 cells)
1 | CCCC[C@@H](C)[C@@H](OC(=O)C[C@@H](CC(=O)O)C(=O)O)[C@H](C[C@@H](C)C[C@H](O)CCCC[C@@H](O)C[C@H](O)[C@H](C)N)OC(=O)C[C@@H](CC(=O)O)C(=O)O [FB1, reference compound] | 0.5 ± 0.05 | 0.92 ± 0.06 | –
2 | CCCCCCCCc1ccc(CCC(N)(CO)CO)cc1 [FTY720, reference compound] | 15 ± 0.07 | 26 ± 0.18 | definitive peak; also recorded: clearly detected
3 | C[C@@](N)(CO)CCc1ccc(OCc2ccccc2)cc1 [G024, (2S)-2-amino-4-(4′-benzyloxyphenyl)-2-methyl-1-butanol] | 24.3 ± 0.22 | 18 ± 0.12 | –
4 | C[C@@](N)(CO)CCc1ccc(OCc2ccc(Cl)c(Cl)c2)cc1 [P053, (S)-2-amino-4-(4-(3,4-dichlorobenzyloxy)phenyl)-2-methylbutan-1-ol] | 7.2 ± 0.1 | 17.2 ± 0.09 | only background signal; also recorded: not detected
